Assay results from patent publication US8143282B2, “Heterocyclic compounds” (S*BIO Pte Ltd., priority 2005, dated 2012).

Experiments:
HDAC1 enzyme = target: T1, HDAC1 enzyme (Homo sapiens, UniProt Q13547); assay: In vitro HDAC assay for determination of IC50 values (BIOMOL fluorescent-based HDAC activity assay); type: biochemical
T1 construct: Amplification of human HDAC1 coding region from this cDNA library was cloned separately into the baculovirus expression pDEST20 vector; made in house; host or cells: SF9 insect cells, pDEST20-HDAC1 baculovirus
T1 sequence (Q13547 whole entry): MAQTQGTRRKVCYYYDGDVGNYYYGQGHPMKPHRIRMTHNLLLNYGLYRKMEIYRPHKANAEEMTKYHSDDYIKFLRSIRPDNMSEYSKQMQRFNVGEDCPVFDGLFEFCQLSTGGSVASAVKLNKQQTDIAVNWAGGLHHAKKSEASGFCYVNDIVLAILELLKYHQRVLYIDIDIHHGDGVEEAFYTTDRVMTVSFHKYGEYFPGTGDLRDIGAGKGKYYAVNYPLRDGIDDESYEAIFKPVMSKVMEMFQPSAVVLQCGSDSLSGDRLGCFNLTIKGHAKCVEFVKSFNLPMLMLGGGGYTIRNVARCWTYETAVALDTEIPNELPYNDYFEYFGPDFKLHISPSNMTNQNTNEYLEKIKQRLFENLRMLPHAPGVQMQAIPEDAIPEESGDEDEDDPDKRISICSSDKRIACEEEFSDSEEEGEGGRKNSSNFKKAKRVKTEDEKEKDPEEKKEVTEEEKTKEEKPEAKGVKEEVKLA
Experimental: Human cDNA library was prepared using cultured SW620 cells. Amplification of human HDAC1 coding region from this cDNA library was cloned separately into the baculovirus expression pDEST20 vector (GATEWAY Cloning Technology, Invitrogen Pte Ltd). The pDEST20-HDAC1 construct was confirmed by DNA sequencing. Recombinant baculovirus was prepared using the Bac-To-Bac method following the manufacturer's instruction (Invitrogen Pte Ltd).
Expression of GST-HDAC1 was done by infecting SF9 cells (Invitrogen Pte Ltd) with pDEST20-HDAC1 baculovirus at MOI=1 for 48 h. Soluble cell lysate was incubated with pre-equilibrated Glutathione Sepharose 4B beads (Amersham) at 4° C. for 2 h. The beads were washed with PBS buffer for 3 times. The GST-HDAC1 protein was eluted by elution buffer containing 50 mM Tris, pH8.0, 150 mM NaCl, 1% Triton X-100 and 10 mM or 20 mM reduced Glutathione. The purified GST-HDAC1 protein was dialyzed with HDAC storage buffer containing 10 mM Tris, pH7.5, 100 mM NaCl and 3 mM MgCl2. 20% Glycerol was added to purified GST-HDAC1 protein before storage at −80° C.
The assay has been carried out in 96 well format and the BIOMOL fluorescent-based HDAC activity assay has been applied. […] Flur de lys Developer was added and the reaction was incubated for 10 min. Briefly, deacetylation of the substrate sensitizes it to the developer, which then generates a fluorophore. The fluorophore is excited with 360 nm light and the emitted light (460 nm) is detected on a fluorometric plate reader (Tecan Ultra Microplate detection system, Tecan Group Ltd.).
The analytical software, Prism 4.0 (GraphPad Software Inc) has been used to generate IC50 from a series of data.

Colo205 cells = assay: Cell-based proliferation assay for GI50 (CyQUANT), Colo205; settings: Homo sapiens, COLO 205, 96 h treatment, read-out: Cellular or Growth Inhibition Activity in Colo205 cells, GI50
Experimental: Human colon cancer cell lines (Colo205, HCT116), Ovarian cancer cell line (A2780), Hepatoma cell line (HEP3B), Prostate cancer cell line (PC3) were obtained from ATCC or ECACC. Colo205 cells were cultivated in RPMI 1640 containing 2 mM L-Glutamine, 5% FBS, 1.0 mM Na Pyruvate, 1 U/ml of penicillin and 1 μg of streptomycin. HCT116 cells were cultivated in McCoy's containing RPMI 1640 containing 2 mM L-Glutamine, 5% FBS, 1 U/ml of penicillin and 1 μg of streptomycin. A2780 cells were cultivated in RPMI 1640 containing 2 mM L-Glutamine, 5% FBS, 1 U/ml of penicillin and 1 μg of streptomycin. HEP3B cells were cultivated in EMEM containing 2 mM L-glutamine, 5% FBS, 1% non essential amino acid, 1 mM Na Pyruvate, 1 U/ml of penicillin and 1 μg of streptomycin. PC3 cells were cultivated in F12K, 2 mM L-glutamine, 5% FBS, 1 U/ml of penicillin and 1 μg of streptomycin. PC3, Colo205, and HCT116 cells were seeded in 96-wells plate at 1000, 5000 and 6000 cells per well respectively. A2780 and HEP3B cells were seeded in 96-wells plate at 4000 cells per well respectively. The plates were incubated at 37° C., 5% CO2, for 24 h. Cells were treated with compounds at various concentrations for 96 h. Cell growth was then monitored using CyQUANT® cell proliferation assay (Invitrogen Pte Ltd). Dose response curves were plotted to determine GI50 values for the compounds using XL-fit (ID Business Solution, Emeryville, Calif.). GI50 is defined as the concentration of compound required for 50% inhibition of cell growth.

| SMILES | IC50 (HDAC1 enzyme) [nM] | GI50 (Colo205 cells) [nM] |
| --- | --- | --- |
| CCCCCc1nc2cc(/C=C/C(=O)NO)ccc2n1C1CCCN(C)C1 (centres unmarked) [Compound 86, N-Hydroxy-3-[1-(1-methyl-piperidin-3-yl)-2-pentyl-1H-benzoimidazol-5-yl]-acrylamide] | 160 | 2080 |
| CCCCCCc1nc2cc(/C=C/C(=O)NO)ccc2n1C1CCCN(CCO)C1 (centres unmarked) [Compound 90, 3-{2-Hexyl-1-[1-(2-hydroxy-ethyl)-piperidin-3-yl]-1H-benzoimidazol-5-yl}-N-hydroxy-acrylamide] | 510 | 8100 |
| O=C(/C=C/c1ccc2c(c1)ncn2C1CCN(CCc2ccccc2)C1)NO (centres unmarked) [Compound 93, (E)-N-hydroxy-3-(1-(1-phenethylpyrrolidin-3-yl)-1H-benzo[d]imidazol-5-yl)acrylamide] | 230 | 2140 |
| CCCCCN1CCCC(n2cnc3cc(/C=C/C(=O)NO)ccc32)C1 (centres unmarked) [Compound 94, (E)-N-hydroxy-3-(1-(1-pentylpiperidin-3-yl)-1H-benzo[d]imidazol-5-yl)acrylamide] | 64 | 600 |
| O=C(/C=C/c1ccc2c(c1)ncn2C1CCCN(CCc2ccccc2)C1)NO (centres unmarked) [Compound 96, (E)-N-hydroxy-3-(1-(1-phenethylpiperidin-3-yl)-1H-benzo[d]imidazol-5-yl)acrylamide] | 80 | 700 |
| O=C(/C=C/c1ccc2c(c1)ncn2C1CCCN(CCCc2ccccc2)C1)NO (centres unmarked) [Compound 97, (E)-N-hydroxy-3-(1-(1-(3-phenylpropyl)piperidin-3-yl)-1H-benzo[d]imidazol-5-yl)acrylamide] | 100 | 670 |
| CC(C)(C)CCN1CCC(n2cnc3cc(/C=C/C(=O)NO)ccc32)C1 (centres unmarked) [Compound 99, 3-{1-[1-(3,3-Dimethyl-butyl)-pyrrolidin-3-yl]-1H-benzoimidazol-5-yl}-N-hydroxy-acrylamide] | 120 | 1890 |
| CCN(CC)CCn1cnc2cc(/C=C/C(=O)NO)ccc21 [Compound 100, (E)-3-(1-(2-(diethylamino)ethyl)-1H-benzo[d]imidazol-5-yl)-N-hydroxyacrylamide] | 190 | 2250 |
| CCCCN1CCCC(n2cnc3cc(/C=C/C(=O)NO)ccc32)C1 (centres unmarked) [Compound 102, (E)-3-(1-(1-butylpiperidin-3-yl)-1H-benzo[d]imidazol-5-yl)-N-hydroxyacrylamide] | 540 | 2080 |
| C=CCCCN1CCCC(n2cnc3cc(/C=C/C(=O)NO)ccc32)C1 (centres unmarked) [Compound 103, (E)-N-hydroxy-3-(1-(1-(pent-4-enyl)piperidin-3-yl)-1H-benzo[d]imidazol-5-yl)acrylamide] | 100 | 480 |
| CC(C)(C)CCN1CCC(n2cnc3cc(/C=C/C(=O)NO)ccc32)CC1 [Compound 104, (E)-3-(1-(1-(3,3-dimethylbutyl)piperidin-4-yl)-1H-benzo[d]imidazol-5-yl)-N-hydroxyacrylamide] | 410 | 1990 |
| CCCN(CCn1cnc2cc(/C=C/C(=O)NO)ccc21)C(C)C [Compound 107, (E)-N-hydroxy-3-(1-(2-(isopropyl(propyl)amino)ethyl)-1H-benzo[d]imidazol-5-yl)acrylamide] | 74 | 630 |
| CCCCCN(CCn1cnc2cc(/C=C/C(=O)NO)ccc21)C(C)C [Compound 109, N-Hydroxy-3-{1-[2-(isopropyl-pentyl-amino)-ethyl]-1H-benzoimidazol-5-yl}-acrylamide] | 48 | 490 |
| CCCN(CC)CCn1cnc2cc(/C=C/C(=O)NO)ccc21 [Compound 112, 3-{1-[2-(Ethyl-propyl-amino)-ethyl]-1H-benzoimidazol-5-yl}-N-hydroxy-acrylamide] | 120 | 880 |
| CCCC(C)CN(CCn1cnc2cc(/C=C/C(=O)NO)ccc21)C(C)C (centres unmarked) [Compound 113, N-Hydroxy-3-(1-{2-[isopropyl-(2-methyl-pentyl)-amino]-ethyl}-1H-benzoimidazol-5-yl)-acrylamide] | 16 | 610 |
| CC(C)N(CCCC(F)(F)F)CCn1cnc2cc(/C=C/C(=O)NO)ccc21 [Compound 114, (E)-N-hydroxy-3-(1-(2-(isopropyl(4,4,4-trifluorobutyl)amino)ethyl)-1H-benzo[d]imidazol-5-yl)acrylamide] | 63 | 720 |

Continued, values first:

| IC50 (HDAC1 enzyme) [nM] | GI50 (Colo205 cells) [nM] | SMILES |
| --- | --- | --- |
| 110 | 1520 | CCCCc1nc2cc(/C=C/C(=O)NO)ccc2n1CCN(C)CC [Compound 85, 3-{2-Butyl-1-[2-(ethyl-methyl-amino)-ethyl]-1H-benzoimidazol-5-yl}-N-hydroxy-acrylamide] |
| 100 | 1070 | CCCCCCN(CC)CCn1cnc2cc(/C=C/C(=O)NO)ccc21 [Compound 87, 3-{1-[2-(Ethyl-hexyl-amino)-ethyl]-1H-benzoimidazol-5-yl}-N-hydroxy-acrylamide] |
| 80 | 870 | CCCCCCCN(CC)CCn1cnc2cc(/C=C/C(=O)NO)ccc21 [Compound 89, 3-{1-[2-(Ethyl-heptyl-amino)-ethyl]-1H-benzoimidazol-5-yl}-N-hydroxy-acrylamide] |
| 60 | 2400 | CCCCc1nc2cc(/C=C/C(=O)NO)ccc2n1CCN(CC)CCCO [Compound 91, 3-(2-Butyl-1-{2-[ethyl-(3-hydroxy-propyl)-amino]-ethyl}-1H-benzoimidazol-5-yl)-N-hydroxy-acrylamide] |
| 50 | 1820 | CCCCCc1nc2cc(/C=C/C(=O)NO)ccc2n1CCN(CC)CCCO [Compound 92, 3-(1-{2-[Ethyl-(3-hydroxy-propyl)-amino]-ethyl}-2-pentyl-1H-benzoimidazol-5-yl)-N-hydroxy-acrylamide] |
| 52 | 570 | CCCCN(CC)CCn1cnc2cc(/C=C/C(=O)NO)ccc21 [Compound 95, 3-{1-[2-(Butyl-ethyl-amino)-ethyl]-1H-benzoimidazol-5-yl}-N-hydroxy-acrylamide] |
| 80 | 2440 | CCN(CC)CCn1c(CCCCC#N)nc2cc(/C=C/C(=O)NO)ccc21 [Compound 101, 3-[2-(4-Cyano-butyl)-1-(2-diethylamino-ethyl)-1H-benzoimidazol-5-yl]-N-hydroxy-acrylamide] |
| 130 | 1770 | CCCNc1nc2cc(/C=C/C(=O)NO)ccc2n1CCN(CC)CC [Compound 105, 3-[1-(2-Diethylamino-ethyl)-2-propylamino-1H-benzoimidazol-5-yl]-N-hydroxy-acrylamide] |
| 44 | 1740 | CCN(CC)CCn1c(CCCCCC#N)nc2cc(/C=C/C(=O)NO)ccc21 [Compound 110, 3-[2-(5-Cyano-pentyl)-1-(2-diethylamino-ethyl)-1H-benzoimidazol-5-yl]-N-hydroxy-acrylamide] |
| 100 | 700 | CCCCCCN(CC)CCn1c(C)nc2cc(/C=C/C(=O)NO)ccc21 [Compound 116, 3-{1-[2-(Ethyl-hexyl-amino)-ethyl]-2-methyl-1H-benzoimidazol-5-yl}-N-hydroxy-acrylamide] |
| 190 | 1800 | CCCCN(CC)CCn1c(C(F)(F)F)nc2cc(/C=C/C(=O)NO)ccc21 [Compound 117, 3-{1-[2-(Butyl-ethyl-amino)-ethyl]-2-trifluoromethyl-1H-benzoimidazol-5-yl}-N-hydroxy-acrylamide] |
| 480 | 1880 | CCCCCCN(CC)CCn1c(C(F)(F)F)nc2cc(/C=C/C(=O)NO)ccc21 [Compound 118, 3-{1-[2-(Ethyl-hexyl-amino)-ethyl]-2-trifluoromethyl-1H-benzoimidazol-5-yl}-N-hydroxy-acrylamide] |
